Results from patent US8791123B2, “Substituted pyrazolo[1,5-a]pyrimidine compounds as Trk kinase inhibitors” (Array Biopharma, Inc., priority 2009, dated 2014).
Read-outs that look alike come from different tables or passages of the source.

Experiments:
[1] = biological target: TrkA (histidine-tagged recombinant human TrkA, cytoplasmic domain) (Homo sapiens (Human), UniProt P04629); assay: TrkA ELISA Assay; format: biochemical; conditions: Table 1; ELISA, 500 μM ATP; read-out: TrkA Enzyme IC50
Procedure, shortened: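 His-tagged human TrkA cytoplasmic domain phosphorylated poly(Glu,Ala,Tyr 6:3:1) coated at 0.025 mg/mL, with inhibitors present. Phosphotyrosine was detected with HRP-conjugated PY20 antibody (0.2 μg/mL) and TMB, read as absorbance at 450 nm after phosphoric acid stop.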

Human Jak2 kinase domain = Human Jak2 kinase domain (Homo sapiens (Human), UniProt O60674); assay: Jak2 Inhibition Assay (Omnia kinase assay); format: biochemical; conditions: read-out: Jak2 Enzyme IC50
Sequence of Human Jak2 kinase domain (O60674 808-1132): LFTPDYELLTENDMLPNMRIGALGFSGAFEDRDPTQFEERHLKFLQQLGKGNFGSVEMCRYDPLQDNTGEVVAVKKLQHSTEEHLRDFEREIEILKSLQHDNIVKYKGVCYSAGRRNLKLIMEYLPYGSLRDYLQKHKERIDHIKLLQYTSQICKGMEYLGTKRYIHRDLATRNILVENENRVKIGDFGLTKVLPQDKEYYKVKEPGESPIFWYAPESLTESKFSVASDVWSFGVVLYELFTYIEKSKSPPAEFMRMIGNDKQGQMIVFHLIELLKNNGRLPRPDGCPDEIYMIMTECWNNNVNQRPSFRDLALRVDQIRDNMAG

[2] = Table 1, 500 μM ATP, >1000 nM when >50% inhibition not observed at 1000 nM

Sequence of TrkA (histidine-tagged recombinant human TrkA, cytoplasmic domain) (P04629 440-796): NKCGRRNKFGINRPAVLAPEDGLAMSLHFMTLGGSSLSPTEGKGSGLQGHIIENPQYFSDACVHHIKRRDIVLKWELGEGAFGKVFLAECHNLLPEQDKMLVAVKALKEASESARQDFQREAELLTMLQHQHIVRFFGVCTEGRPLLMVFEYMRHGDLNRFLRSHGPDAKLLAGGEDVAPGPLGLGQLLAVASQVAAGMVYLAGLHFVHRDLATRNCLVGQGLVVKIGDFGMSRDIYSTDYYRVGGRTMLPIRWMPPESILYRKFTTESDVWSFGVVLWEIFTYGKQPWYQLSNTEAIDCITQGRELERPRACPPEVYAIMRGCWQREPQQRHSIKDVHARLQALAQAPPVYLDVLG

SMILES | IC50 [1] | IC50 (Human Jak2 kinase domain; [2]) | IC50 (Human Jak2 kinase domain)
O=C(NOCC1CC1)c1cnn2ccc(N3CCC[C@@H]3c3cc(F)ccc3F)nc12 [Example 66, (R)—N-(cyclopropylmethoxy)-5-(2-(2,5-difluorophenyl)pyrrolidin-1-yl)pyrazolo[1,5-a]pyrimidine-3-carboxamide] | 0.57 nM | > 1000 nM | –
O=C(NC1CCOCC1)c1cnn2ccc(N3CCC[C@@H]3c3cc(F)ccc3F)nc12 [Example 20, (R)-5-(2-(2,5-difluorophenyl)pyrrolidin-1-yl)-N-(tetrahydro-2H-pyran-4-yl)pyrazolo[1,5-a]pyrimidine-3-carboxamide] | 0.6 nM | 257 nM | –
Cc1ncc(F)cc1[C@H]1CCCN1c1ccn2ncc(C(=O)NC[C@@H](C)O)c2n1 [Example 189, (R)-5-(2-(5-fluoro-2-methylpyridin-3-yl)pyrrolidin-1-yl)-N-((R)-2-hydroxypropyl)pyrazolo[1,5-a]pyrimidine-3-carboxamide] | 76.4 nM | > 1000 nM | –
COCCOc1cc(F)cc([C@H]2CCCN2c2ccn3ncc(C(N)=O)c3n2)c1 [Example 78, (R)-5-(2-(3-fluoro-5-(2-methoxyethoxy)phenyl)pyrrolidin-1-yl)pyrazolo[1,5-a]pyrimidine-3-carboxamide] | 34.9 nM | > 1000 nM | –
CC1(C)OCC(COc2ccc(F)cc2[C@H]2CCCN2c2ccn3ncc(C(=O)NC4CC4)c3n2)O1 (stereo partly drawn) [Example 204, N-cyclopropyl-5-((2R)-2-(2-((2,2-dimethyl-1,3-dioxolan-4-yl)methoxy)-5-fluorophenyl)pyrrolidin-1-yl)pyrazolo[1,5-a]pyrimidine-3-carboxamide] | 16.6 nM | > 1000 nM | –
COCCOc1cc(F)cc([C@H]2CCCN2c2ccn3ncc(C(=O)NC4CC4)c3n2)c1 [Example 77, (R)—N-cyclopropyl-5-(2-(3-fluoro-5-(2-methoxyethoxy)phenyl)pyrrolidin-1-yl)pyrazolo[1,5-a]pyrimidine-3-carboxamide] | 5.37 nM | > 1000 nM | –
C[C@H](CO)NC(=O)c1cnn2ccc(N3CCC[C@@H]3c3cncc(F)c3)nc12 [Example 115, 5-((R)-2-(5-fluoropyridin-3-yl)pyrrolidin-1-yl)-N-((R)-1-hydroxypropan-2-yl)pyrazolo[1,5-a]pyrimidine-3-carboxamide] | 15.3 nM | > 1000 nM | –
CC(C)(CN1CCOCC1)NC(=O)c1cnn2ccc(N3CCC[C@@H]3c3cc(F)ccc3F)nc12 [Example 9, (R)-5-(2-(2,5-difluorophenyl)pyrrolidin-1-yl)-N-(2-methyl-1-morpholinopropan-2-yl)pyrazolo[1,5-a]pyrimidine-3-carboxamide] | 3.45 nM | > 1000 nM | –
O=C(N[C@@H]1CCCC[C@H]1O)c1cnn2ccc(N3CCC[C@@H]3c3cncc(F)c3)nc12 [Example 136, 5-((R)-2-(5-fluoropyridin-3-yl)pyrrolidin-1-yl)-N-((1R,2R)-2-hydroxycyclohexyl)pyrazolo[1,5-a]pyrimidine-3-carboxamide] | 26.3 nM | > 1000 nM | –
CNC(=O)c1cnn2ccc(N3CCC[C@@H]3c3cc(F)cnc3OC)nc12 [Example 153, (R)-5-(2-(5-fluoro-2-methoxypyridin-3-yl)pyrrolidin-1-yl)-N-methylpyrazolo[1,5-a]pyrimidine-3-carboxamide] | 2.1 nM | > 1000 nM | –
COc1ncc(F)cc1[C@H]1CCCN1c1ccn2ncc(C(=O)NC(C)(C)C)c2n1 [Example 80, (R)—N-tert-butyl-5-(2-(5-fluoro-2-methoxypyridin-3-yl)pyrrolidin-1-yl)pyrazolo[1,5-a]pyrimidine-3-carboxamide] | 1.8 nM | – | 869 nM
C[C@H](O)CNC(=O)c1cnn2ccc(N3CCC[C@@H]3c3cncc(F)c3)nc12 [Example 109, 5-((R)-2-(5-fluoropyridin-3-yl)pyrrolidin-1-yl)-N-((S)-2-hydroxypropyl)pyrazolo[1,5-a]pyrimidine-3-carboxamide] | 36.7 nM | > 1000 nM | –
O=C(NC[C@H](O)CO)c1cnn2ccc(N3CCC[C@@H]3c3cc(F)ccc3F)nc12 [Example 29, 5-((R)-2-(2,5-difluorophenyl)pyrrolidin-1-yl)-N—((S)-2,3-dihydroxypropyl)pyrazolo[1,5-a]pyrimidine-3-carboxamide] | 1.3 nM | > 1000 nM | –
C[C@H](O)[C@H](CO)NC(=O)c1cnn2ccc(N3CCC[C@@H]3c3cc(F)ccc3F)nc12 [Example 175, 5-((R)-2-(2,5-difluorophenyl)pyrrolidin-1-yl)-N-((2S,3S)-1,3-dihydroxybutan-2-yl)pyrazolo[1,5-a]pyrimidine-3-carboxamide] | 12.2 nM | > 1000 nM | –
COc1ncc(F)cc1[C@H]1CCCN1c1ccn2ncc(C(=O)Nc3ccc(=O)[nH]c3)c2n1 [Example 161, (R)-5-(2-(5-fluoro-2-methoxypyridin-3-yl)pyrrolidin-1-yl)-N-(6-oxo-1,6-dihydropyridin-3-yl)pyrazolo[1,5-a]pyrimidine-3-carboxamide] | 3 nM | > 1000 nM | –
O=C(NC1(CO)CC1)c1cnn2ccc(N3CCC[C@@H]3c3cc(F)ccc3F)nc12 [Example 16, (R)-5-(2-(2,5-difluorophenyl)pyrrolidin-1-yl)-N-(1-(hydroxymethyl)cyclopropyl)pyrazolo[1,5-a]pyrimidine-3-carboxamide] | 0.9 nM | > 1000 nM | –
COc1ncc(F)cc1[C@H]1CCCN1c1ccn2ncc(C(=O)NOCCOC(C)(C)C)c2n1 [Example 152, (R)-N-(2-tert-butoxyethoxy)-5-(2-(5-fluoro-2-methoxypyridin-3-yl)pyrrolidin-1-yl)pyrazolo[1,5-a]pyrimidine-3-carboxamide] | 18.1 nM | > 1000 nM | –
O=C(O)CC1CCN(C(=O)c2cnn3ccc(N4CCC[C@@H]4c4cc(F)ccc4F)nc23)CC1 [Example 12, (R)-2-(1-(5-(2-(2,5-difluorophenyl)pyrrolidin-1-yl)pyrazolo[1,5-a]pyrimidine-3-carbonyl)piperidin-4-yl)acetic acid] | 238 nM | – | > 1000 nM
C[C@@H](NC(=O)c1cnn2ccc(N3CCC[C@@H]3c3cncc(F)c3)nc12)C(F)(F)F [Example 129, 5-((R)-2-(5-fluoropyridin-3-yl)pyrrolidin-1-yl)-N-((R)-1,1,1-trifluoropropan-2-yl)pyrazolo[1,5-a]pyrimidine-3-carboxamide] | 8 nM | > 1000 nM | –
Cc1ncc(F)cc1[C@H]1CCCN1c1ccn2ncc(C(=O)N[C@H]3CN4CCC3CC4)c2n1 [Example 198, 5-((R)-2-(5-fluoro-2-methylpyridin-3-yl)pyrrolidin-1-yl)-N-((R)-quinuclidin-3-yl)pyrazolo[1,5-a]pyrimidine-3-carboxamide] | 243 nM | > 1000 nM | –
COc1ncc(F)cc1[C@H]1CCCN1c1ccn2ncc(C(=O)NCC(O)CO)c2n1 (stereo partly drawn) [Example 149, N-(2,3-dihydroxypropyl)-5-((R)-2-(5-fluoro-2-methoxypyridin-3-yl)pyrrolidin-1-yl)pyrazolo[1,5-a]pyrimidine-3-carboxamide] | 6.1 nM | > 1000 nM | –
CN(C)C(=O)c1cnn2ccc(N3CCC[C@@H]3c3cc(F)ccc3F)nc12 [Example 27, (R)-5-(2-(2,5-difluorophenyl)pyrrolidin-1-yl)-N,N-dimethylpyrazolo[1,5-a]pyrimidine-3-carboxamide] | 214 nM | > 1000 nM | –
COCC(C)NC(=O)c1cnn2ccc(N3CCCC3c3cncc(F)c3)nc12 [Example 118, 5-((R)-2-(5-fluoropyridin-3-yl)pyrrolidin-1-yl)-N-(1-methoxypropan-2-yl)pyrazolo[1,5-a]pyrimidine-3-carboxamide] | 22.5 nM | > 1000 nM | –
Cc1ncc(F)cc1[C@H]1CCCN1c1ccn2ncc(C(=O)NCCO)c2n1 [Example 188, (R)-5-(2-(5-fluoro-2-methylpyridin-3-yl)pyrrolidin-1-yl)-N-(2-hydroxyethyl)pyrazolo[1,5-a]pyrimidine-3-carboxamide] | 83 nM | > 1000 nM | –
Cc1ncc(F)cc1[C@H]1CCCN1c1ccn2ncc(C(=O)N[C@H]3CC[C@H](O)C3)c2n1 [Example 196, 5-((R)-2-(5-fluoro-2-methylpyridin-3-yl)pyrrolidin-1-yl)-N-((1S,3S)-3-hydroxycyclopentyl)pyrazolo[1,5-a]pyrimidine-3-carboxamide] | 6.8 nM | > 1000 nM | –
COc1ccc(F)cc1[C@H]1CCCN1c1ccn2ncc(C(=O)NCCN3CCOCC3)c2n1 [Example 54, (R)-5-(2-(5-fluoro-2-methoxyphenyl)pyrrolidin-1-yl)-N-(2-morpholinoethyl)pyrazolo[1,5-a]pyrimidine-3-carboxamide] | 2.25 nM | – | > 1000 nM
CN1CCN(CCNC(=O)c2cnn3ccc(N4CCC[C@@H]4c4cc(F)ccc4F)nc23)CC1 [Example 171, 5-((R)-2-(2,5-difluorophenyl)pyrrolidin-1-yl)-N-(2-(4-methylpiperazin-1-yl)ethyl)pyrazolo[1,5-a]pyrimidine-3-carboxamide] | 4.7 nM | > 1000 nM | –
COc1ncc(F)cc1[C@H]1CCCN1c1ccn2ncc(C(=O)NCCCO)c2n1 [Example 148, (R)-5-(2-(5-fluoro-2-methoxypyridin-3-yl)pyrrolidin-1-yl)-N-(3-hydroxypropyl)pyrazolo[1,5-a]pyrimidine-3-carboxamide] | 1.1 nM | > 1000 nM | –
CCc1ncc(F)cc1[C@H]1CCCN1c1ccn2ncc(C(=O)N[C@H]3CC[C@H](O)C3)c2n1 [Example 200, 5-((R)-2-(2-ethyl-5-fluoropyridin-3-yl)pyrrolidin-1-yl)-N-((1S,3S)-3-hydroxycyclopentyl)pyrazolo[1,5-a]pyrimidine-3-carboxamide] | 12.7 nM | > 1000 nM | –
